Consider 24 compounds from ChEMBL document CHEMBL1201862, “PubChem BioAssay data set” (2004).

Common to all, as to assay: DTP human tumour cell line panel, 48 h
The test system of experiment [1] is M19-MEL.
Experiment [2] concerns LXFL 529.
The subject of experiment [3] is HOP-18.
For experiment [4], the system named is XF498.
The test system of experiment [5] is SNB-78.
Experiment [6] relates to DLD-1.
Experiment [7] relates to DMS-273.
The test system of experiment [8] is DMS-114.
The test system of experiment [9] is RXF 631.

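Method: 48-hour compound exposure of cells in 96-well plates, five concentrations, linear interpolation of endpoints. GI50 = concentration required for 50% inhibition of growth.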 Active and inactive are the calls of the source. No stated cut-off is given here; in the data, active = GI50 up to about 1.1 µM and inactive = higher.

For the compound `COc1ccc2c(c1)CCc1c-2nc2cc3c(cc2c1O)OCO3`, the GI50 in [1], in experiment [2], in experiment [3], in [4], in experiment [5] and in experiment [6] was > 100 µM (inactive) in each case. Moreover, the GI50 in experiment [7] was > 100 µM (inactive).
Take `CN(C)CCC(=O)N1C/C(=C/c2ccccc2)C(=O)/C(=C\c2ccccc2)C1`: the GI50 in [8] is 1.41 µM (inactive); in experiment [1] it was 0.834 µM (active); in experiment [2] it was 1.92 µM (inactive); in [9], 2.29 µM (inactive); in experiment [3] it was 4.46 µM (inactive); in experiment [4] it was 2.5 µM (inactive). Also, the GI50 in [5] is 3 µM (inactive); in [6], 0.931 µM (active); in [7], 1.55 µM (inactive).
In the case of `O=c1c(-c2ccccc2)c(O)nc2[nH]c3ccccc3n12`, the GI50 in experiment [8], in experiment [1], in experiment [2], in [9], in experiment [3] and in [4] was > 100 µM (inactive) throughout. For the same compound, the GI50 in experiment [5], in [6] and in [7] was > 100 µM (inactive) throughout.
In the case of `Cc1cccc2c1N(C(=O)/C=C\C(=O)O)C(c1c(C)[nH]c3ccccc13)C2` (stereo unspecified), the GI50 in experiment [8] was 19.9 µM (inactive); in [1] it was 22.7 µM (inactive); in [2], 15.3 µM (inactive); in [4], 21.9 µM (inactive); in experiment [5] it was 31.2 µM (inactive); in [6] it was 33.6 µM (inactive).
For the compound `COc1cc(Nc2cnc3ccc(C(F)(F)F)cc3n2)cc(OC)c1OC`, the GI50 in experiment [1] was 13.6 µM (inactive); in experiment [2], 27.4 µM (inactive); in experiment [3], > 100 µM (inactive); in experiment [5] it was > 100 µM (inactive); in experiment [7] it was 25.5 µM (inactive).
Consider `COC(=O)CSc1nnc(-c2ccc(O)c([N+](=O)[O-])c2)[nH]1`, for which the GI50 in [2], in experiment [9], in experiment [4], in [6] and in [7] was > 100 µM (inactive) throughout.
In the case of `O=[N+]([O-])c1ccc(Cl)cc1C1SCc2nc3ccccc3n21` (stereo unspecified), the GI50 is 35.6 µM (inactive) in experiment [8]; 61.7 µM (inactive) in [1]; 48.3 µM (inactive) in [2]; 37.1 µM (inactive) in experiment [9]; 13 µM (inactive) in experiment [3]; 65.5 µM (inactive) in [4]. The results for the GI50 in experiment [5], in experiment [6] and in experiment [7] were 42.9 µM (inactive), 37.2 µM (inactive) and 31.6 µM (inactive), respectively.
Consider `COc1ccc(OC)c2[s+]snc12`, for which the GI50 is 15.8 µM (inactive) in experiment [1]; 35.6 µM (inactive) in experiment [2]; > 100 µM (inactive) in experiment [9]; 45.3 µM (inactive) in experiment [4]; > 100 µM (inactive) in experiment [5]; 49.5 µM (inactive) in experiment [6]. Besides, the GI50 in experiment [7] was > 100 µM (inactive).
With `COc1cc2c(cc1OC)C(C(=O)c1cccc(OC)c1OC)C(=O)N(C)CC2` (stereo unspecified), the GI50 was 56.5 µM (inactive) in [8]; > 100 µM (inactive) in experiment [1]; > 100 µM (inactive) in [2]; > 100 µM (inactive) in experiment [9]; > 100 µM (inactive) in experiment [3]; 63.4 µM (inactive) in experiment [4]. Moreover, the GI50 in experiment [6] and in experiment [7] was > 100 µM (inactive) each time.
In the case of `CC1CCSC(N(C(=O)N(C)c2ccccc2)c2ccccc2)=N1` (stereo unspecified), the GI50 in experiment [8], in experiment [1], in experiment [2], in [4], in experiment [5] and in [6] was > 100 µM (inactive) in each case. For the same compound, the GI50 in [7] was > 100 µM (inactive).
With `Fc1cccc2cc3ccc4cccc5ccc(c12)c3c45`, the GI50 in experiment [8] was > 100 µM (inactive); in [1], > 100 µM (inactive); in [2] it was > 100 µM (inactive); in experiment [9], > 100 µM (inactive); in [3], 1.72 µM (inactive); in [4] it was > 100 µM (inactive). Also, the GI50 is 0.509 µM (active) in experiment [6] and 0.296 µM (active) in experiment [7].
Regarding `O=C(NC12CC3CCC1CC(C3)C2)[C@@H]1CCCN1C(=O)OCc1ccccc1` (stereo partly specified), the GI50 is 50.4 µM (inactive) in [8]; 83.6 µM (inactive) in experiment [1]; 30.3 µM (inactive) in experiment [2]; > 100 µM (inactive) in experiment [3]; 19.2 µM (inactive) in experiment [4]; 49.9 µM (inactive) in experiment [5]. Also, the results for the GI50 in experiment [6] and in [7] were 56.9 µM (inactive) and 49.8 µM (inactive), respectively.
As to `NC(=O)NC1C(C(=O)O)N(Cc2ccccc2)C(=O)N1Cc1ccccc1` (stereo unspecified), the GI50 in experiment [8], in experiment [1], in experiment [2], in [4], in experiment [5] and in experiment [6] was > 100 µM (inactive) each time.
In the case of `CC[C@@]1(OC(=O)CN(C)C)C(=O)OCc2c1cc1n(c2=O)Cc2cc3ccccc3nc2-1`, the concentration for 50% growth inhibition (GI50) was 0.0259 µM (active) in experiment [8]; 0.114 µM (active) in experiment [1]; 1.29 µM (inactive) in experiment [2]; 0.312 µM (active) in experiment [3]; 0.354 µM (active) in [4]; 7.67 µM (inactive) in experiment [5]. Also, the GI50 in experiment [6] is 0.323 µM (active); in experiment [7], 0.01 µM (active).
In the case of `COC(=O)C12C3C4C5C3(C#N)C1C5(C(=O)OC)C42C(=O)N(C(C)C)C(C)C` (stereo unspecified), the GI50 in experiment [8] is > 100 µM (inactive); in experiment [1], > 100 µM (inactive); in experiment [2] it was > 92.9 µM (inactive); in experiment [9], > 95.5 µM (inactive); in experiment [3], > 100 µM (inactive); in experiment [4] it was > 63.7 µM (inactive). Besides, the GI50 is > 100 µM (inactive) in experiment [5], > 50.2 µM (inactive) in [6] and > 42.5 µM (inactive) in experiment [7].
For `CSc1nc(NC2OC(COC(C)=O)C(OC(C)=O)C(OC(C)=O)C2OC(C)=O)c(-c2csc(N)n2)c(=O)n1C` (stereo unspecified), the GI50 in experiment [8] is 34.8 µM (inactive); in experiment [1], 47.6 µM (inactive); in experiment [2], 31.7 µM (inactive); in [3], 16.6 µM (inactive); in experiment [5], 22.4 µM (inactive); in [6] it was 44.8 µM (inactive).
For the compound `CC1=C(C(=O)Nc2cc(=O)n(C)c(=O)n2C)C(c2ccco2)C(C(=O)Nc2cc(=O)n(C)c(=O)n2C)=C(C)N1`, the GI50 in experiment [8], in experiment [1], in experiment [2], in experiment [9], in experiment [4] and in experiment [5] was > 100 µM (inactive) each time. Besides, the GI50 in [6] is > 100 µM (inactive).
Take `CN(C)C(=S)/N=c1\ss/c(=N\C(=S)N(C)C)n1-c1ccc(Cl)c(Cl)c1`: the GI50 is > 100 µM (inactive) in [8], > 100 µM (inactive) in experiment [1], 67.1 µM (inactive) in [5] and > 100 µM (inactive) in [7].
Take `COc1cc2c(c(OC)c1)C1(CC(CC#N)C2)SCCS1` (stereo unspecified): the GI50 in [8], in experiment [1], in experiment [2], in experiment [9], in experiment [3] and in experiment [5] was > 100 µM (inactive) each time. The GI50 in experiment [6] and in experiment [7] was > 100 µM (inactive) in each case.
For the compound `NCCCCN(CCCN)/[N+]([O-])=N\O`, the GI50 in experiment [8], in experiment [1], in [2], in experiment [3], in experiment [5] and in experiment [6] was > 100 µM (inactive) in each case. Besides, the GI50 in experiment [7] was > 100 µM (inactive).
Turning to `CN(C)[C@@H]1C(O)=C(C(=O)NCNc2nc3[nH]nnc3c(=O)[nH]2)C(=O)[C@@]2(O)C(O)=C3C(=O)c4c(O)cccc4[C@@](C)(O)[C@H]3C[C@@H]12`, the GI50 is 1.52 µM (inactive) in [8]; 2.24 µM (inactive) in [1]; 53.1 µM (inactive) in experiment [2]; 0.836 µM (active) in experiment [9]; 2.19 µM (inactive) in experiment [3]; 1.26 µM (inactive) in [4]. Besides, the GI50 in [5] was 1.81 µM (inactive); in experiment [6], 29.7 µM (inactive); in experiment [7], 1.29 µM (inactive).
On to `COC(=O)/C=C/C1C2C3(CCC(C)C12C)OCCS3` (stereo unspecified), for which the GI50 in experiment [8], in [1], in experiment [2], in experiment [3], in experiment [4] and in experiment [5] was > 100 µM (inactive) each time. Besides, the GI50 in experiment [6] and in experiment [7] was > 100 µM (inactive) each time.
In the case of `CCN(CC)CCNc1ccc2nnn3c4ccccc4c(=O)c1c23`, the GI50 in experiment [8] is 6.55 µM (inactive); in [1], 4.86 µM (inactive); in experiment [2], 5.22 µM (inactive); in experiment [9], 2.88 µM (inactive); in [4], 3.49 µM (inactive); in experiment [5], > 10 µM (inactive). Further, the values for the GI50 in experiment [6] and in experiment [7] were 4.19 µM (inactive) and 3.66 µM (inactive), respectively.
In the case of `COc1ccc(C2CC(=O)c3c(O)cc(O)cc3O2)cc1O` (stereo unspecified), the GI50 in experiment [8], in [1], in experiment [2], in experiment [9], in experiment [4] and in experiment [5] was > 100 µM (inactive) each time. Also, the GI50 in [6] and in experiment [7] was > 100 µM (inactive) in each case.
